Data on 10 compounds can be found in patent US7396844B1, “Benzamidine derivatives” (Ajinomoto Co., Inc., priority 1997, dated 2008).

Where two headings read alike, the source gives them in different places.

Assay [1] has as its target T1, activated human blood coagulation factor X (Homo sapiens, UniProt P00742).
T1 construct: purchased Enzyme Research Co
Briefly: Determination of activity of inhibiting the activated blood coagulation factor X. In kind it is biochemical. Particulars: same manner as Example 93; for IC50: read-out: Activity of inhibiting activated blood coagulation factor X (pIC50) (converted). The protocol:
130 μl of 100 mM Tris-HCl buffer adjusted to pH 8.4 was added to 10 μl of an aqueous solution of a compound to be tested. Then 10 μl of a 0.5 unit/ml solution of activated human blood coagulation factor X (a product of Enzyme Research Co.) in Tris-HCl buffer hydrochloride of pH 8.4 was added to the resultant mixture. After the incubation at room temperature for 10 minutes, 50 μl of a solution of N-benzoyl-L-isoleucyl-L-glutamyl-glycyl-L-arginyl-p-nitroanilide hydrochloride (a product of Peptide Institute, Inc.) adjusted to 0.8 mM with Tris-HCl buffer (pH 8.4) was added thereto. The absorbance was determined and then the initial reaction rate was determined. A control was prepared in the same manner as that described above except that the solution of the compound to be tested was replaced with 10 μl of Tris-HCl buffer adjusted to pH 8.4.

The next assay deals with T2, human thrombin (Homo sapiens, UniProt P00734).
T2 construct: human thrombin (a product of SIGMA Co.); purchased SIGMA Co
Nature of the assay: Determination of thrombin-inhibiting activity. In kind it is biochemical. The following applies: same manner as Example 94. The protocol:
130 μl of 100 mM Tris-HCl buffer adjusted to pH 8.4 was added to 10 μl of an aqueous solution of a test compound. Then 10 μl of a solution of human thrombin (a product of SIGMA Co.) adjusted to 2 units/ml with Tris-HCl buffer of pH 8.4 was added to the resultant mixture. […] The absorbance was determined and then the initial reaction rate was determined. A control was prepared in the same manner as that described above except that the solution of the compound to be tested was replaced with 10 μl of tris hydrochloride buffer adjusted to pH 8.4.

For a further assay, the system named is blood plasma. Briefly: Determination of blood anticoagulating activity by prothrombin time (PT). In kind it is biochemical, human. More on the design: key: -log of concentration doubling control PT. The protocol: The blood anticoagulating activity was determined by a prothrombin time (PT) determination method. The PT was determined as follows: The blood was taken from healthy people. […] The blood plasma was separated by the centrifugation. 5 μl of DMSO solution containing a test compound was added to 45 μl of the blood plasma. After the incubation at room temperature for 2 minutes, a test tube containing the blood plasma solution was placed in Sysmex CA-3000 fully automatic blood coagulation determination device (a product of Toa Medical Electronics Co., Ltd), and incubated at 37° C. for 3 minutes. […] PT was automatically determined with the device. A sample containing 5 μl of DMSO in place of the solution of the test compound was used as the control. The negative logarithm (PT2) of the concentration of the test compound which elongated PT of the control to the twice as long was determined, and employed as the index of the blood anticoagulating activity.

Where [2] appears, read: Table 2, read-out: Thrombin-inhibiting activity (pIC50) (converted).
Where [3] appears, read: Table 2, negative logarithm of concentration that elongated PT of the control to twice as long, plasma of healthy people.
[4] abbreviates: Table 3, read-out: Thrombin inhibiting activity (pIC50) (converted).
Setting [5] is: Table 3, same manner as Example 184, negative logarithm of concentration doubling PT.

T1 sequence (P00742 235-488 limits assumed): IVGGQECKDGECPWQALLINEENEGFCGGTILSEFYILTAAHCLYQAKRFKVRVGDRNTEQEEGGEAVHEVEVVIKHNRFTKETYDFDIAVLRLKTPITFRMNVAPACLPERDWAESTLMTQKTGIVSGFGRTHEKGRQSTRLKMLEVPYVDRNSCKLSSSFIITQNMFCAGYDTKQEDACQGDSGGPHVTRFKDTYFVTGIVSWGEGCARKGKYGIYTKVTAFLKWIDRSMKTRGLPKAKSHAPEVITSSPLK
T1 sequence (P00742 41-179 partner limits assumed): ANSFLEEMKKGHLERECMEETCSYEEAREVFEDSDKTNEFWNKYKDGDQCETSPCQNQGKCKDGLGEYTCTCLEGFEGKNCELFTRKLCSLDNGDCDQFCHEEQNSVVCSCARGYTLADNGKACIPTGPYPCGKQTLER

Take `CC(=N)N1CCC(Oc2ccc(C[C@@H](COc3cccc(C(=N)N)c3)NS(=O)(=O)c3ccc(/C=C/C(=O)O)cc3)cc2)CC1.O=C(O)C(F)(F)F.O=C(O)C(F)(F)F` [Compound of Ex. 171, (2E)-3-[4-[(2S)-1-[4-(1-acetimidoyl-4-piperidyloxy)phenyl]-3-(3-amidinophenoxy)-2-propylsulfamoyl]phenyl]acrylic acid bistrifluoroacetate]: the figures for the IC50 (in assay [1] (Table 2); at human thrombin (setting [2])) were 100 nM and 39800 nM, respectively. Also, the “Blood anticoagulating activity (PT2)” value with blood plasma (setting [3]) came out at 6.

As for `CC(=N)N1CCC(Oc2ccc(C[C@@H](CCc3cccc(C(=N)N)c3)NS(=O)(=O)c3ccccc3)cc2)CC1.O=C(O)C(F)(F)F.O=C(O)C(F)(F)F` [Compound of Ex. 175, 3-[(3R)-3-(benzenesulfonylamino)-4-[4-(1-acetimidoyl-4-piperidyloxy)phenyl]butyl]benzamidine bistrifluoroacetate], the IC50 in assay [1] (Table 2) is 251 nM; at human thrombin (setting [2]), 63100 nM. Also, in the assay with blood plasma (setting [3]), the “Blood anticoagulating activity (PT2)” value is on record as 5.9.

With `CC(=N)N1CCC(Oc2ccc(C[C@H](NS(=O)(=O)c3ccccc3)C(=O)Nc3cccc(C(=N)N)c3)cc2)CC1.O=C(O)C(F)(F)F.O=C(O)C(F)(F)F` [Compound of Ex. 178, (2S)—N-(3-amidinophenyl)-2-(benzenesulfonylamino)-3-[4-(1-acetimidoyl-4-piperidyloxy)phenyl]propionamide bistrifluoroacetate], the IC50 in assay [1] (Table 2) was 501 nM; at human thrombin (setting [2]), greater than 398000 nM. In addition, the “Blood anticoagulating activity (PT2)” value in the assay with blood plasma (setting [3]) was found to be 5.7.

In the case of `N=C(N)c1ccc(CC(=O)C(=O)O)c(OC[C@H](Cc2ccc(OC3CCNCC3)cc2)NS(=O)(=O)c2ccccc2)c1.O=C(O)C(F)(F)F.O=C(O)C(F)(F)F` [Compound of Ex. 180, 3-[4-amidino-2-[(2S)-2-(benzenesulfonylamino)-3-[4-(4-piperidyloxy)phenyl]propoxy]phenyl]-2-oxopropionic acid bistrifluoroacetate], the figures for the IC50 (in assay [1] (Table 2); at human thrombin (setting [2])) were 158 nM and 3160 nM, respectively. Besides, the “Blood anticoagulating activity (PT2)” value in the assay with blood plasma (setting [3]) turned out to be 5.7.

As for `CC(=N)N1CCC(Oc2ccc(C[C@@H](COc3cc(C(=N)N)ccc3CC(=O)C(=O)O)NS(=O)(=O)c3ccccc3)cc2)CC1.O=C(O)C(F)(F)F.O=C(O)C(F)(F)F` [Compound of Ex. 181, 3-[4-amidino-2-[(2S)-3-[4-(1-acetimidoyl-4-piperidyloxy)phenyl]-2-(benzenesulfonylamino)propoxy]phenyl]-2-oxopropionic acid bistrifluoroacetate], the IC50 in assay [1] (Table 2) is 20 nM; on human thrombin (setting [2]) it was 1580 nM. Moreover, the “Blood anticoagulating activity (PT2)” value with blood plasma (setting [3]) was found to be 6.7.

Regarding `N=C(N)c1ccc(C(=O)N[C@@H](COc2cc(C(=N)N)ccc2CC(=O)C(=O)O)CC(=O)O)cc1.O=C(O)C(F)(F)F.O=C(O)C(F)(F)F` [Compound of Ex. 186, (3R)-3-(4-amidinobenzoylamino)-4-[5-amidino-2-(2-carboxy-2-oxoethyl)phenoxy]butanoic acid bistrifluoroacetate], the IC50 was 20 nM in assay [1] (Table 3) and 251000 nM on human thrombin (setting [4]). Moreover, the “Blood anticoagulating activity (PT2)” value in the assay on blood plasma (setting [5]) amounted to 5.9.

Consider `CN(C)C(=O)c1ccc(C(=O)N[C@@H](COc2cc(C(=N)N)ccc2CC(=O)C(=O)O)CC(=O)O)cc1.O=C(O)C(F)(F)F` [Compound of Ex. 188, (3R)-4-[5-amidino-2-(2-carboxy-2-oxoethyl)phenoxy]-3-(4-dimethylcarbamoylbenzoylamino)butanoic acid trifluoroacetate], for which the IC50 is 7.94 nM in assay [1] (Table 3) and 398000 nM at human thrombin (setting [4]). In addition, the “Blood anticoagulating activity (PT2)” value in the assay on blood plasma (setting [5]) amounted to 5.7.

As to `N=C(N)c1ccc(CC(=O)C(=O)O)c(OC[C@@H](CC(=O)O)NC(=O)c2ccc(C(=O)N3CCCC3)cc2)c1.O=C(O)C(F)(F)F` [Compound of Ex. 191, (3R)-4-[5-amidino-2-(2-carboxy-2-oxoethyl)phenoxy]-3-[4-(pyrrolidine-1-carbonyl)benzoylamino]butanoic acid trifluoroacetate], the IC50 was 3.98 nM in assay [1] (Table 3) and 200000 nM at human thrombin (setting [4]). Moreover, in the assay on blood plasma (setting [5]), the “Blood anticoagulating activity (PT2)” value is on record as 6.0.

In the case of `CC(=N)N1CCC(Oc2ccc(C(=O)N[C@@H](COc3cc(C(=N)N)ccc3CC(=O)C(=O)O)CC(=O)O)cc2)CC1.O=C(O)C(F)(F)F.O=C(O)C(F)(F)F` [Compound of Ex. 193, (3R)-4-[5-amidino-2-(2-carboxy-2-oxoethyl)phenoxy]-3-[4-(1-(1-iminoethyl)piperidyl-4-oxy)benzoylamino]butanoic acid bistrifluoroacetate], the “Activity of inhibiting activated blood coagulation factor X (pIC50)” value in assay [1] (Table 3) was determined as 7.9. Further, the “Thrombin inhibiting activity (pIC50)” value at human thrombin (Table 3) came to 3.4. For the same compound, the “Blood anticoagulating activity (PT2)” value in the assay on blood plasma (setting [5]) was determined as 6.2.

For the compound `N=C(N)c1ccc(CC(=O)C(=O)O)c(OC[C@@H](CC(=O)O)NC(=O)c2ccc(S(=O)(=O)N3CCCC3)cc2)c1.O=C(O)C(F)(F)F` [Compound of Ex. 195, (3R)-4-[5-amidino-2-(2-carboxy-2-oxoethyl)phenoxy]-3-[4-(pyrrolidine-1-sulfonyl)benzoylamino]butanoic acid trifluoroacetate], the IC50 in assay [1] (Table 3) is 31.6 nM; at human thrombin (setting [4]), 31600 nM. The “Blood anticoagulating activity (PT2)” value in the assay on blood plasma (setting [5]) is 5.9.
